Reference: US8722849B2, “Polypeptides” (Novo Nordisk A/S, priority 2011, dated 2014)
In brackets after ≈: the same amount, converted by molar mass. Where two headings read alike, the source gives them in different places. Starred links: 1 amine or outer side, 2 acyl side, 3 side chain; linkers in the order of their positions; H or OH if unused. Positions of bridges follow the written chain, without caps; N, C: chain ends. Residues, ends and D or L forms follow the SMILES beside them. *: point of attachment. C20 diacid = O=C(O)CCCCCCCCCCCCCCCCCCC(=O)*; γGlu = O=C(O)[C@H](CCC(=O)[*:2])N[*:1]

Experiments:
[1] = Assay (IV) determination of solubility; format: physicochemical
Outline: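 Polypeptide in water (~500 nmol/ml stock) was mixed 1:1 with 100 mM buffers from pH 3.0 to 8.0 (glycylglycine pH 3.0–5.0; bistrispropane pH 6.0–8.0). After 18 hours at room temperature, samples were centrifuged and the polypeptide remaining in solution was quantified by HPLC.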

[2] = target: T1, human amylin receptor (amylin 3(a) receptor: human calcitonin receptor + RAMP-3) (Homo sapiens, UniProt O60896+P30988); experiment: Assay (II)a functional CRE-luciferase assay, human amylin receptor; format: cell-based; details: Table 2; BHK amylin 3(a)-receptor/CRE-luc cells
T1 construct: expressed in transfected cells; host or cells: BHK570
T1 sequence (P30988 25-474): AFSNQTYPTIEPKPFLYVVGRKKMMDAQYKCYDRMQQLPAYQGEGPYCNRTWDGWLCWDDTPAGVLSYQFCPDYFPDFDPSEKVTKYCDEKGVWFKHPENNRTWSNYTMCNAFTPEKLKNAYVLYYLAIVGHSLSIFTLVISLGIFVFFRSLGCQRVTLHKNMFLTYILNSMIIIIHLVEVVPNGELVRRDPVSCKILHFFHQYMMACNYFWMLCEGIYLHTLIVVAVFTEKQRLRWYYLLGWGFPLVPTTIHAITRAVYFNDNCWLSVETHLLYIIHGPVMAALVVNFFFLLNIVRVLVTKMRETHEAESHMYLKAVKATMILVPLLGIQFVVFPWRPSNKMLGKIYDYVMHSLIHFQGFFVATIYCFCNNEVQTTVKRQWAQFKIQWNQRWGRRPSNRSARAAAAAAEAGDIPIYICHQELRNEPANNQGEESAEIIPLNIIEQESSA
T1 sequence (O60896 24-148 partner): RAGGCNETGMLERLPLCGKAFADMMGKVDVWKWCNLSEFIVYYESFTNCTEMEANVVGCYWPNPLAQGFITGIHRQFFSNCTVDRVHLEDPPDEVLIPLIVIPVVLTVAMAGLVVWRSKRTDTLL

[3] = Assay (III) ThT fibrillation assay for physical stability; format: physicochemical; details: ThT fibrillation assay
Outline: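 Freshly prepared formulations, pH-adjusted, with 1 μM ThT; four or eight replicates incubated at 37 °C under 960 rpm orbital shaking. Fluorescence (ex 444/em 485 nm) read every 20 min; […]. Peptide concentration measured by RP-HPLC before and after the run.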

[4] = target: T2, human calcitonin receptor (Homo sapiens, UniProt P30988); experiment: Assay (II)a functional CRE-luciferase assay, human calcitonin receptor; format: cell-based; details: Table 7; human calcitonin (CTa) receptor
T2 construct: expressed in transfected cells; host or cells: BHK570
T2 sequence (P30988 25-474): T1 sequence (P30988 25-474)

[5] = bistrispropane buffer, pH 6, pH 6.0, read-out: Solubility pH 6.0
[6] = bistrispropane buffer, pH 6.5, pH 6.5, read-out: Solubility pH 6.5
[7] = bistrispropane buffer, pH 7, pH 7.0, 18 hours at room temperature, Table 3, read-out: Solubility pH 7.0
[8] = bistrispropane buffer, pH 7, pH 7.0, read-out: Solubility pH 7.0
[9] = bistrispropane buffer, pH 7.5, pH 7.5, read-out: Solubility pH 7.5
[10] = bistrispropane buffer, pH 8, pH 8.0, read-out: Solubility pH 8.0
[11] = glycylglycine buffer, pH 3, pH 3.0, read-out: Solubility pH 3.0
[12] = glycylglycine buffer, pH 4, pH 4.0, 18 hours at room temperature, Table 2, read-out: Solubility pH 4.0
[13] = glycylglycine buffer, pH 4, pH 4.0, read-out: Solubility pH 4.0
[14] = glycylglycine buffer, pH 5, pH 5.0, read-out: Solubility pH 5.0

Row | SMILES | solubility at 18 h [1, 5] | solubility at 18 h [1, 6] | solubility at 18 h [1, 7] | solubility at 18 h [1, 8] | solubility at 18 h [1, 9] | solubility at 18 h [1, 10] | solubility at 18 h [1, 11] | solubility at 18 h [1, 12] | solubility at 18 h [1, 13] | solubility at 18 h [1, 14] | EC50 [2] | ThT pH 4.0 lag time (h) [3] | EC50 [4] | ThT pH 4.0 lag time [3]
1 | CC[C@H](C)[C@H](NC(=O)[C@@H]1CCCN1C(=O)CNC(=O)[C@H](Cc1ccccc1)NC(=O)[C@H](CC(N)=O)NC(=O)[C@H](CC(N)=O)NC(=O)[C@H](CO)NC(=O)[C@H](CO)NC(=O)[C@H](Cc1c[nH]cn1)NC(=O)[C@H](Cc1c[nH]cn1)NC(=O)[C@H](CC(C)C)NC(=O)[C@H](Cc1ccccc1)NC(=O)[C@H](CCC(=O)O)NC(=O)[C@H](C)NC(=O)[C@H](CC(C)C)NC(=O)[C@H](CCCNC(=N)N)NC(=O)[C@H](CCC(N)=O)NC(=O)[C@@H](NC(=O)[C@H](C)NC(=O)[C@@H]1CSSC[C@H](NC(=O)[C@H](Cc2c[nH]cn2)NC(=O)[C@H](CCC(=O)O)NC(=O)CC[C@H](NC(=O)CCCCCCCCCCCCCCCCCCC(=O)O)C(=O)O)C(=O)N[C@@H](CC(N)=O)C(=O)N[C@@H]([C@@H](C)O)C(=O)N[C@@H](C)C(=O)N[C@@H]([C@@H](C)O)C(=O)N1)[C@@H](C)O)C(=O)N[C@@H](CC(C)C)C(=O)N1CCC[C@H]1C(=O)N1CCC[C@H]1C(=O)N[C@H](C(=O)N[C@@H](CC(N)=O)C(=O)N[C@H](C(=O)NCC(=O)N[C@@H](CO)C(=O)N[C@@H](CC(N)=O)C(=O)N[C@H](C(=O)N[C@@H](Cc1ccc(O)cc1)C(N)=O)[C@@H](C)O)C(C)C)[C@@H](C)O [Example 40, N-alpha-[(S)-4-Carboxy-4-(19-carboxynonadecanoylamino)butyryl]-Glu-[His1,Glu14,His17]-pramlintide] ({C20 diacid-γGlu}-EHCNTATCATQRLAEFLHHSSNNFGPILPPTNVGSNTY-NH2; disulfide 3-8 (inferred); C-terminus assumed) | > 200 µM | > 200 µM | > 200 µM | > 200 µM | > 200 µM | > 200 µM | > 200 µM | > 200 µM | > 200 µM | > 200 µM | 0.248 nM | 7 h | 0.439 nM | 
2 | CC[C@H](C)[C@H](NC(=O)[C@@H]1CCCN1C(=O)CNC(=O)[C@H](Cc1ccccc1)NC(=O)[C@H](CC(N)=O)NC(=O)[C@H](CC(N)=O)NC(=O)[C@H](CO)NC(=O)[C@H](CO)NC(=O)[C@H](CCCNC(=N)N)NC(=O)[C@H](Cc1c[nH]cn1)NC(=O)[C@H](CC(C)C)NC(=O)[C@H](Cc1ccccc1)NC(=O)[C@H](CCC(=O)O)NC(=O)[C@H](C)NC(=O)[C@H](CC(C)C)NC(=O)[C@H](CCCNC(=N)N)NC(=O)[C@H](CCC(N)=O)NC(=O)[C@@H](NC(=O)[C@H](C)NC(=O)[C@@H]1CSSC[C@H](NC(=O)[C@H](CCC(=O)O)NC(=O)CC[C@H](NC(=O)CCCCCCCCCCCCCCCCCCC(=O)O)C(=O)O)C(=O)N[C@@H](CC(N)=O)C(=O)N[C@@H]([C@@H](C)O)C(=O)N[C@@H](C)C(=O)N[C@@H]([C@@H](C)O)C(=O)N1)[C@@H](C)O)C(=O)N[C@@H](CC(C)C)C(=O)N1CCC[C@H]1C(=O)N1CCC[C@H]1C(=O)N[C@H](C(=O)N[C@@H](CC(N)=O)C(=O)N[C@H](C(=O)NCC(=O)N[C@@H](CO)C(=O)N[C@@H](CC(N)=O)C(=O)N[C@H](C(=O)N[C@@H](Cc1ccc(O)cc1)C(N)=O)[C@@H](C)O)C(C)C)[C@@H](C)O [Example 30, N-alpha-[(S)-4-Carboxy-4-(19-carboxynonadecanoylamino)butyryl]-[Glu1,Glu14,His17,Arg18]-pramlintide] ({C20 diacid-γGlu}-ECNTATCATQRLAEFLHRSSNNFGPILPPTNVGSNTY-NH2; disulfide 2-7 (inferred)) | > 200 µM | > 200 µM | > 200 µM | > 200 µM | > 200 µM | > 200 µM | > 200 µM | > 200 µM | > 200 µM | 69 µM (≈ 309 µg/mL) | 0.174 nM | 4.7 h | 0.753 nM | 
3 | CC[C@H](C)[C@H](NC(=O)[C@@H]1CCCN1C(=O)CNC(=O)[C@H](Cc1ccccc1)NC(=O)[C@H](CC(N)=O)NC(=O)[C@H](CCC(N)=O)NC(=O)[C@H](CO)NC(=O)[C@H](CO)NC(=O)[C@H](Cc1c[nH]cn1)NC(=O)[C@H](Cc1c[nH]cn1)NC(=O)[C@H](CC(C)C)NC(=O)[C@H](Cc1ccccc1)NC(=O)[C@H](CCC(=O)O)NC(=O)[C@H](C)NC(=O)[C@H](CC(C)C)NC(=O)[C@H](CCCNC(=N)N)NC(=O)[C@H](CCC(N)=O)NC(=O)[C@@H](NC(=O)[C@H](C)NC(=O)[C@@H]1CSSC[C@H](NC(=O)[C@H](CCCCN)NC(=O)[C@H](CCC(=O)O)NC(=O)CC[C@H](NC(=O)CCCCCCCCCCCCCCCCCCC(=O)O)C(=O)O)C(=O)N[C@@H](CC(N)=O)C(=O)N[C@@H]([C@@H](C)O)C(=O)N[C@@H](C)C(=O)N[C@@H]([C@@H](C)O)C(=O)N1)[C@@H](C)O)C(=O)N[C@@H](CC(C)C)C(=O)N1CCC[C@H]1C(=O)N1CCC[C@H]1C(=O)N[C@H](C(=O)N[C@@H](CC(N)=O)C(=O)N[C@H](C(=O)NCC(=O)N[C@@H](CO)C(=O)N[C@@H](Cc1c[nH]cn1)C(=O)N[C@H](C(=O)N[C@@H](Cc1ccc(O)cc1)C(N)=O)[C@@H](C)O)C(C)C)[C@@H](C)O [Example 129, N-alpha-[(S)-4-Carboxy-4-(19-carboxynonadecanoylamino)butyryl]-Glu-[Glu14,His17,Gln21,His35]-pramlintide] ({C20 diacid-γGlu}-EKCNTATCATQRLAEFLHHSSQNFGPILPPTNVGSHTY-NH2; disulfide 3-8 (inferred); C-terminus assumed) | > 200 µM | 194 µM (≈ 897 µg/mL) | > 200 µM | > 200 µM | > 200 µM | > 200 µM | > 200 µM | > 200 µM | > 200 µM | > 200 µM | 0.391 nM | 24 h | 0.247 nM | 
4 | CC[C@H](C)[C@H](NC(=O)[C@@H]1CCCN1C(=O)CNC(=O)[C@H](Cc1ccccc1)NC(=O)[C@H](CC(N)=O)NC(=O)[C@H](CC(N)=O)NC(=O)[C@H](CO)NC(=O)[C@H](CO)NC(=O)[C@H](Cc1c[nH]cn1)NC(=O)[C@H](Cc1c[nH]cn1)NC(=O)[C@H](CC(C)C)NC(=O)[C@H](Cc1ccccc1)NC(=O)[C@H](CCC(=O)O)NC(=O)[C@H](C)NC(=O)[C@H](CC(C)C)NC(=O)[C@H](CCCNC(=N)N)NC(=O)[C@H](CCC(N)=O)NC(=O)[C@@H](NC(=O)[C@H](C)NC(=O)[C@@H]1CSSC[C@H](NC(=O)[C@H](CCCCN)NC(=O)CC[C@H](NC(=O)CCCCCCCCCCCCCCCCCCC(=O)O)C(=O)O)C(=O)N[C@@H](CC(N)=O)C(=O)N[C@@H]([C@@H](C)O)C(=O)N[C@@H](C)C(=O)N[C@@H]([C@@H](C)O)C(=O)N1)[C@@H](C)O)C(=O)N[C@@H](CC(C)C)C(=O)N1CCC[C@H]1C(=O)N1CCC[C@H]1C(=O)N[C@H](C(=O)N[C@@H](CC(N)=O)C(=O)N[C@@H](Cc1c[nH]cn1)C(=O)NCC(=O)N[C@@H](CO)C(=O)N[C@@H](CC(N)=O)C(=O)N[C@H](C(=O)N[C@@H](Cc1ccc(O)cc1)C(N)=O)[C@@H](C)O)[C@@H](C)O [Example 116, N-alpha-[(S)-4-Carboxy-4-(19-carboxynonadecanoylamino)butyryl]-[Glu14,His17,His32]-pramlintide] ({C20 diacid-γGlu}-KCNTATCATQRLAEFLHHSSNNFGPILPPTNHGSNTY-NH2; disulfide 2-7 (inferred); C-terminus assumed) | > 200 µM | 120 µM (≈ 539 µg/mL) |  | 44 µM (≈ 198 µg/mL) | 79 µM (≈ 355 µg/mL) | 173 µM (≈ 777 µg/mL) | > 200 µM | > 200 µM | > 200 µM | > 200 µM | 0.487 nM | >45 h | 0.124 nM | >45 h
